Reference: US8772321B2, “Heteroannelated anthraquinone derivatives for inhibiting cancers” (National Defense Medical Center, priority 2008, dated 2014)

Key:
[1] = test system: SV_UC—1; experiment: Cell toxicity in normal epithelial cell; type: cell-based
Source text: To investigate the cell proliferation inhibition effect of NSC745885 in cancer cells, we compared the cancer cell proliferation inhibition effect of the NSC745885 with well-know bladder anti-cancer agent “Emodin” and clinical cancer chemical therapy agent “Doxorubicin”. The experiment bladder cancer cell lines includes T24 (FIG. 9A, 9D) and MBT2 (FIG. 9 B, 9E). We also confirm the NSC745885 cell toxicity using the non-cancer cell fibroblast 3T3 (FIG. 9C) and normal epithelial cell SV_UC—1 (FIG. 9F).

[2] = test system: SK-OV-3; experiment: NCI 60-cell one dose screen; type: cell-based, human; settings: SK-OV-3 (Ovarian cancer); 10^−5M
Description: (§1) NSC745885 was studied as a prototype for anti-proliferative activity against human cancer cell lines in NCI Drug Screen Program (Table 1, below). NSC745885 was evaluated in the full panel of human tumor cell lines derived from nine cancer cell types (leukemia, non-small cell lung cancer, colon cancer, CNS cancer, prostate cancer, melanoma, ovarian cancer, renal cancer and breast cancer). Each subpanel uses several cell lines and dose-response curves were drawn against the decadic logarithm (log 10) of the corresponding drug concentrations for each cell line by the subpanel group. They were also evaluated in the 60 cell line panel and anticancer assay was performed in accordance with the protocol of developmental therapeutics program (one dose mean graph). Results for each compound were reported as the proliferation percentage of the treated cells with that of the untreated control cells being 100. For each of these parameters the averaged values of mean graph midpoint (MG_MID) were calculated.

[3] = test system: HL-60(TB); experiment: NCI 60-cell one dose screen; type: cell-based, human; settings: HL-60(TB) (Leukemia); 10^−5M
Description: as §1

[4] = test system: SN12C; experiment: NCI 60-cell one dose screen; type: cell-based, human; settings: SN12C (Renal cancer); 10^−5M
Description: as §1

[5] = test system: SNB-19; experiment: NCI 60-cell one dose screen; type: cell-based, human; settings: SNB-19 (CNS cancer); 10^−5M
Description: as §1

[6] = test system: SK-MEL-5; experiment: NCI 60-cell one dose screen; type: cell-based, human; settings: SK-MEL-5 (Melanoma); 10^−5M
Description: as §1

[7] = test system: 786-0; experiment: NCI 60-cell one dose screen; type: cell-based, human; settings: 786-0 (Renal cancer); 10^−5M
Description: as §1

[8] = test system: K-562; experiment: NCI 60-cell one dose screen; type: cell-based, human; settings: K-562 (Leukemia); 10^−5M
Description: as §1

[9] = test system: CAK1-1; experiment: NCI 60-cell one dose screen; type: cell-based, human; settings: CAK1-1 (Renal cancer); 10^−5M
Description: as §1

[10] = test system: MDA-MB468; experiment: NCI 60-cell one dose screen; type: cell-based, human; settings: MDA-MB468 (Breast cancer); 10^−5M
Description: as §1

[11] = test system: TK-10; experiment: NCI 60-cell one dose screen; type: cell-based, human; settings: TK-10 (Renal cancer); 10^−5M
Description: as §1

[12] = test system: ACHN; experiment: NCI 60-cell one dose screen; type: cell-based, human; settings: ACHN (Renal cancer); 10^−5M
Description: as §1

[13] = test system: T-47D; experiment: NCI 60-cell one dose screen; type: cell-based, human; settings: T-47D (Breast cancer); 10^−5M
Description: as §1

[14] = test system: COLO 205; experiment: NCI 60-cell one dose screen; type: cell-based, human; settings: COLO 205 (Colon cancer); 10^−5M
Description: as §1

[15] = test system: MOLT-4; experiment: NCI 60-cell one dose screen; type: cell-based, human; settings: MOLT-4 (Leukemia); 10^−5M
Description: as §1

[16] = test system: UACC-62; experiment: NCI 60-cell one dose screen; type: cell-based, human; settings: UACC-62 (Melanoma); 10^−5M
Description: as §1

[17] = test system: A549/ATCC; experiment: NCI 60-cell one dose screen; type: cell-based, human; settings: A549/ATCC (Non-small cell lung cancer); 10^−5M; untreated control 100
Description: as §1

[18] = test system: HCT-15; experiment: NCI 60-cell one dose screen; type: cell-based, human; settings: HCT-15 (Colon cancer); 10^−5M
Description: as §1

[19] = test system: SNB-75; experiment: NCI 60-cell one dose screen; type: cell-based, human; settings: SNB-75 (CNS cancer); 10^−5M
Description: as §1

[20] = test system: OVCAR-3; experiment: NCI 60-cell one dose screen; type: cell-based, human; settings: OVCAR-3 (Ovarian cancer); 10^−5M
Description: as §1

[21] = test system: MALME-3M; experiment: NCI 60-cell one dose screen; type: cell-based, human; settings: MALME-3M (Melanoma); 10^−5M
Description: as §1

[22] = test system: CCRF-CEM; experiment: NCI 60-cell one dose screen; type: cell-based, human; settings: CCRF-CEM (Leukemia); 10^−5M
Description: as §1

[23] = test system: MCF7; experiment: NCI 60-cell one dose screen; type: cell-based, human; settings: MCF7 (Breast cancer); 10^−5M
Description: as §1

[24] = test system: RXF393; experiment: NCI 60-cell one dose screen; type: cell-based, human; settings: RXF393 (Renal cancer); 10^−5M
Description: as §1

[25] = test system: IGROV1; experiment: NCI 60-cell one dose screen; type: cell-based, human; settings: IGROV1 (Ovarian cancer); 10^−5M
Description: as §1

[26] = test system: RPMI-8226; experiment: NCI 60-cell one dose screen; type: cell-based, human; settings: RPMI-8226 (Leukemia); 10^−5M
Description: as §1

[27] = test system: U251; experiment: NCI 60-cell one dose screen; type: cell-based, human; settings: U251 (CNS cancer); 10^−5M
Description: as §1

[28] = test system: HT29; experiment: NCI 60-cell one dose screen; type: cell-based, human; settings: HT29 (Colon cancer); 10^−5M
Description: as §1

[29] = test system: SR; experiment: NCI 60-cell one dose screen; type: cell-based, human; settings: SR (Leukemia); 10^−5M
Description: as §1

[30] = test system: SW-620; experiment: NCI 60-cell one dose screen; type: cell-based, human; settings: SW-620 (Colon cancer); 10^−5M
Description: as §1

[31] = test system: SF-268; experiment: NCI 60-cell one dose screen; type: cell-based, human; settings: SF-268 (CNS cancer); 10^−5M
Description: as §1

[32] = test system: MDA-MB-231/ATCC; experiment: NCI 60-cell one dose screen; type: cell-based, human; settings: MDA-MB-231/ATCC (Breast cancer); 10^−5M
Description: as §1

[33] = test system: LOX IMVI; experiment: NCI 60-cell one dose screen; type: cell-based, human; settings: LOX IMVI (Melanoma); 10^−5M
Description: as §1

[34] = test system: HT29; experiment: NCI 60-cell panel dose-response; type: cell-based; settings: Homo sapiens, HT-29; HT29 (Colon cancer)

O=C1c2ccccc2C(=O)c2c1ccc1nsnc21 [NSC745885, anthra[2,1-c][1,2,5]thiadiazole-6,11-dione]
cell toxicity in normal cell [1]: no cell toxicity | proliferation percentage [2]: 100.70% | proliferation percentage [3]: −21.77% | proliferation percentage [4]: −73.27% | proliferation percentage [5]: 78.98% | proliferation percentage [6]: 8.52% | proliferation percentage [7]: −25.98% | proliferation percentage [8]: 49.61% | proliferation percentage [9]: 1.97% | proliferation percentage [10]: −73.17% | proliferation percentage [11]: 96.99% | proliferation percentage [12]: −94.31% | proliferation percentage [13]: −45.52% | proliferation percentage [14]: 111.54% | proliferation percentage [15]: −40.09% | proliferation percentage [16]: −82.32% | proliferation percentage [17]: 104.18% | proliferation percentage [18]: 1.48% | proliferation percentage [19]: 79.03% | proliferation percentage [20]: −15.47% | proliferation percentage [21]: −71.54% | proliferation percentage [22]: −30.81% | proliferation percentage [23]: −50.74% | proliferation percentage [24]: 20.11% | proliferation percentage [25]: −88.34% | proliferation percentage [26]: −27.97% | proliferation percentage [27]: −89.26% | proliferation percentage [28]: 116.95% | proliferation percentage [29]: 4.96% | proliferation percentage [30]: 7.30% | proliferation percentage [31]: 16.29% | proliferation percentage [32]: −17.33% | proliferation percentage [33]: −50.63% | GI50 [34]: 13.4 µM
